A word on the pIC50: it is −log10 of the IC50, conventionally taken in molar units. Lower therefore signals a large IC50.

pIC50: −log10 of the molar value.

For one test, the target named is Mcl-1 (Homo sapiens, UniProt Q07820). The experiment in a line: Mcl-1 Homogeneous Time Resolved Fluorescence (HTRF) binding assay.
Sequence of Mcl-1 (Q07820 whole entry): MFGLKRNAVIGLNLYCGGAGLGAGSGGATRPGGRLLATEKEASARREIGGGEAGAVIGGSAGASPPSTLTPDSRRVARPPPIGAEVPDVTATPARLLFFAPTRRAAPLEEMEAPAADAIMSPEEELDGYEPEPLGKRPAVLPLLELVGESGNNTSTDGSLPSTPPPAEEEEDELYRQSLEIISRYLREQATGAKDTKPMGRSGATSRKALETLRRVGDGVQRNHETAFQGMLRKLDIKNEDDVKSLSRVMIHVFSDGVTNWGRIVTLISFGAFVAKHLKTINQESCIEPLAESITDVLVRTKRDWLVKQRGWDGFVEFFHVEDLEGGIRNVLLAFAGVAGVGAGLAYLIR
Conditions: not given
Background: Time-resolved FRET reads energy transfer from a long-lived donor to a nearby acceptor.
On to `Cn1nc2cc1CSc1cc3c(c(c1)OCCCc1c(C(=O)O)n(C)c4c(c(Cl)ccc14)-c1c(nn4c1CCC4)CSC2)NCCC3` (single isomer, unassigned) [Example 1A, (Ra)-(+)-(Z)-1^6-Chloro-1^1,6^1-dimethyl-2^5,2^6,9^1,9^2,9^3,9^4-hexahydro-1^1H,2^4H,6^1H-10-oxa-4,8-dithia-9(6,8)-quinolina-1(7,3)-indola-2(3,2)-pyrrolo[1,2-b]pyrazola-6(3,5)-pyrazolacyclotridecaphane-1^2-carboxylic acid], for which the negative-log IC50 (pIC50) was over 8.00.

`Cn1nc2cc1CSc1cc3c(c(c1)OCCCc1c(C(=O)O)n(C)c4c(c(Cl)ccc14)-c1c(nn4c1CCCC4)CSC2)NCCC3` (single isomer, unassigned) [Example 2A, (Ra)-(+)-(Z)-1^6-chloro-1^1,6^1-dimethyl-2^4,2^5,2^6,2^7,9^1,9^2,9^3,9^4-octahydro-1^1H,6^1H-10-oxa-4,8-dithia-9(6,8)-quinolina-2(3 ,2)-pyrazolo[1,5-a]pyridina-1(7 ,3)-indola-6(3,5)-pyrazolacyclotridecaphane-1^2-carboxylic acid]: the negative-log IC50 (pIC50) was over 8.00.

The subject of the next test is NCI-H929 cells. The experiment in a line: NCI-H929 cell proliferation assay (CellTiter-Glo). The format is cell-based. As to conditions: 72 h compound treatment. The protocol:
NCI-H929 Cell Proliferation Assay
Cell proliferation was measured using the CellTiter-Glo® Luminescent Cell Viability Assay. The assay involved the addition of a single reagent (CellTiter-Glo® Reagent) directly to cells cultured in serum-supplemented medium. NCI-H929 (ATCC CRL-9068) cells were cultured according to ATCC recommendations and were seeded at 3,000 cells per well.
Each compound evaluated was prepared as a DMSO stock solution (10 mM). Compounds were tested in duplicate on each plate, with a 10-point serial dilution curve (1:3 dilution). Compound treatment ([…]) was added from the compound dilution plate to the cell plate. The highest compound concentration was 10 μM (final), with a 0.1% final DMSO concentration. Plates were then incubated at 37° C., 5% CO2. After 72 h of compound treatment, cell plates were equilibrated at rt for approximately 30 mins. An equi-volume amount of CellTiter-Glo® Reagent (40 μL) was added to each well. Plates were mixed for 2 mins on an orbital shaker to induce cell lysis and then incubated at rt for 10 mins to stabilize the luminescent signal. Luminescence was recorded using an Envision plate reader according to CellTiter-Glo protocol. IC50 of each compound was calculated using GraphPad Prism by nonlinear regression analysis.
(In general: ATP-based viability assays read luminescence as a measure of living cells.)
`Cc1nn(C23CC(C2)C3)c2c1-c1c(F)ccc3c(c(C(=O)O)n(C)c13)CCCOc1cc(cc3c1NCCC3)SCc1cc(nn1C)CSC2` (atropisomer, axis not shown; (Sa)) [Example 10B, (Sa)-(−)-(Z)-2^1-(Bicyclo[1.1.1]pentan-1-yl)-1^6-fluoro-1^1,2^3,6^1-trimethyl-9^1,9^2,9^3,9^4-tetrahydro-1^1H,2^1H,6^1H-10-oxa-4,8-dithia-9(6,8)-quinolina-1(7,3)-indola-2(4,5),6(3,5)-dipyrazolacyclotridecaphane-1^2-carboxylic acid]: the negative-log IC50 (pIC50) was at least 7.00.

`CN1Cc2cc(n(C)n2)CCc2cc3c(c(c2)OCCCc2c(C(=O)O)n(C)c4c(c(Cl)ccc24)-c2c(nn4c2CCCC4)C1)NCCC3` (atropisomer, axis not shown; (Ra)) [Example 6A, (Ra)-(+)-(Z)-1^6-Chloro-1^1,6^1,4-trimethyl-2^4,2^5,2^6,2^7,9^1,9^2,9^3,9^4-octahydro-1^1H,6^1H-10-oxa-4-aza-9(6,8)-quinolina-2(3,2)-pyrazolo[1,5-a]pyridina-1(7,3)-indola-6(3,5)-pyrazolacyclotridecaphane-1^2-carboxylic acid] had a pIC50 of at least 7.00.

`Cn1nc2cc1CSc1cc3c(c(c1)OCCCc1c(C(=O)O)n(C)c4c(c(F)ccc14)-c1c(nn4c1CCCC4)CSC2)NCCC3` (atropisomer, axis not shown; (Sa)) [Example 8B, (Sa)-(−)-(Z)-1^6-Fluoro-1^1,6^1-dimethyl-2^4,2^5,2^6,2^7,9^1,9^2,9^3,9^4-octahydro-1^1H,6^1H-10-oxa-4,8-dithia-9(6, 8)-quinolina-2(3,2)-pyrazolo[1,5-a]pyridina-1(7,3)-indola-6(3,5)-pyrazolacyclotridecaphane-1^2-carboxylic acid] gave a pIC50 of 6.00 to 7.00.

As to `CN1Cc2cc(n(C)n2)CCc2cc3c(c(c2)OCCCc2c(C(=O)O)n(C)c4c(c(Cl)ccc24)-c2c(nn4c2CCC4)C1)NCCC3` (atropisomer, axis not shown; (Ra)) [Example 5A, (Ra)-(+)-(Z)-1^6-Chloro-1^1,6^1,4-trimethyl-2^5,2^6,9^1,9^2,9^3,9^4-hexahydro-1^1H,2^4H,6^1H-10-oxa-4-aza-9(6,8)-quinolina-1(7,3)-indola-2(3,2)-pyrrolo[1,2-b]pyrazola-6(3,5)-pyrazolacyclotridecaphane-1^2-carboxylic acid], the negative-log IC50 (pIC50) is at least 7.00.

With `CN1Cc2cc(n(C)n2)CCc2cc3c(c(c2)OCCCc2c(C(=O)O)n(C)c4c(c(Cl)ccc24)-c2c(nn4c2CCC4)C1)NCCC3` (atropisomer, axis not shown; (Sa)) [Example 5B, (Sa)-(−)-(Z)-1^6-Chloro-1^1,6^1,4-trimethyl-2^5,2^6,9^1,9^2,9^3,9^4-hexahydro-1^1H,2^4H,6^1H-10-oxa-4-aza-9(6,8)-quinolina-1(7,3)-indola-2(3,2)-pyrrolo[1,2-b]pyrazola-6(3,5)-pyrazolacyclotridecaphane-1^2-carboxylic acid], the negative-log IC50 (pIC50) is at most 6.00.

`Cc1nn(C23CC(C2)C3)c2c1-c1c(Cl)ccc3c(c(C(=O)O)n(C)c13)CCCOc1cc(cc3c1NCCC3)SCc1cc(nn1C)CSC2` (atropisomer, axis not shown; (Sa)) [Example 9B, (Sa)-(−)-(Z)-2^1-(Bicyclo[1.1.1]pentan-1-yl)-1^6-chloro-1^1,2^3,6^1-trimethyl-9^1,9^2,9^3,9^4-tetrahydro-1^1H,2^1H,6^1H-10-oxa-4,8-dithia-9(6,8)-quinolina-1(7,3)-indola-2(4,5),6(3,5)-dipyrazolacyclotridecaphane-1^2-carboxylic acid] gave a pIC50 of at least 7.00.

`Cn1nc2cc1CSc1cc3c(c(c1)OCCCc1c(C(=O)O)n(C)c4c(c(F)ccc14)-c1c(nn4c1CCCC4)CSC2)NCCC3` (atropisomer, axis not shown; (Ra)) [Example 8A, (Ra)-(+)-(Z)-1^6-Fluoro-1^1,6^1-dimethyl-2^4,2^5,2^6,2^7,9^1,9^2,9^3,9^4-octahydro-1^1H,6 ^1H-10-oxa-4,8-dithia-9(6, 8)-quinolina-2(3,2)-pyrazolo[1,5-a]pyridina-1(7,3)-indola-6(3,5)-pyrazolacyclotridecaphane-1^2-carboxylic acid] showed a pIC50 of at most 6.00.

`CN1Cc2cc(n(C)n2)CSc2cc3c(c(c2)OCCCc2c(C(=O)O)n(C)c4c(c(Cl)ccc24)-c2c(nn4c2CCCC4)C1)NCCC3` (atropisomer, axis not shown; (Ra)) [Example 4A, (Ra)-(+)-(Z)-1^6-Chloro-1^1,6^1,4-trimethyl-2^4,2^5,2^6,2^7,9^1,9^2,9^3,9^4-octahydro-1^1H,6^1H-10-oxa-8-thia-4-aza-9(6,8)-quinolina-2(3,2)-pyrazolo[1,5-a]pyridina-1(7,3)-indola-6(3,5)-pyrazolacyclotridecaphane-1^2-carboxylic acid] showed a negative-log IC50 (pIC50) of at most 6.00.

The same test, now with this note: Homo sapiens, NCI-H929, 72 h, 72 h compound treatment.
In turn, `Cn1nc2cc1CSc1cc3c(c(c1)OCCCc1c(C(=O)O)n(C)c4c(c(Cl)ccc14)-c1c(nn4c1CCC4)CSC2)NCCC3` (atropisomer, axis not shown; (Sa)) [Example 1B, (Sa)-(−)-(Z)-1^6-Chloro-1^1,6^1-dimethyl-2^5,2^6,9^1,9^2,9^3,9^4-hexahydro-1^1H,2^4H,6^1H-10-oxa-4,8-dithia-9(6,8)-quinolina-1(7,3)-indola-2(3 ,2)-pyrrolo[1,2-b]pyrazola-6(3,5)-pyrazolacyclotridecaphane-1^2-carboxylic acid] showed a pIC50 of at most 6.00.

Regarding `Cn1nc2cc1CSc1cc3c(c(c1)OCCCc1c(C(=O)O)n(C)c4c(c(F)ccc14)-c1c(nn4c1CCC4)CSC2)NCCC3` (atropisomer, axis not shown; (Ra)) [Example 7A, (Ra)-(+)-(Z)-1^6-Fluoro-1^1,6^1-dimethyl-2^5,2^6,9^1,9^2,9^3,9^4-hexahydro-1^1H,2^4H,6^1H-10-oxa-4,8-dithia-9(6,8)-quinolina-1(7,3)-indola-2(3,2)-pyrrolo[1,2-b]pyrazola-6(3,5)-pyrazolacyclotridecaphane-1^2-carboxylic acid], the pIC50 is 6.00 to 7.00.

On to `Cn1nc2cc1CSc1cc3c(c(c1)OCCCc1c(C(=O)O)n(C)c4c(c(Cl)ccc14)-c1c(nn4c1CCC4)CSC2)NCCC3` (single isomer, unassigned) [Example 1A, (Ra)-(+)-(Z)-1^6-Chloro-1^1,6^1-dimethyl-2^5,2^6,9^1,9^2,9^3,9^4-hexahydro-1^1H,2^4H,6^1H-10-oxa-4,8-dithia-9(6,8)-quinolina-1(7,3)-indola-2(3,2)-pyrrolo[1,2-b]pyrazola-6(3,5)-pyrazolacyclotridecaphane-1^2-carboxylic acid], for which the pIC50 is at least 7.00.

Consider `Cn1nc2cc1CSc1cc3c(c(c1)OCCCc1c(C(=O)O)n(C)c4c(c(Cl)ccc14)-c1c(nn4c1CCCC4)CSC2)NCCC3` (single isomer, unassigned) [Example 2A, (Ra)-(+)-(Z)-1^6-chloro-1^1,6^1-dimethyl-2^4,2^5,2^6,2^7,9^1,9^2,9^3,9^4-octahydro-1^1H,6^1H-10-oxa-4,8-dithia-9(6,8)-quinolina-2(3 ,2)-pyrazolo[1,5-a]pyridina-1(7 ,3)-indola-6(3,5)-pyrazolacyclotridecaphane-1^2-carboxylic acid], for which the negative-log IC50 (pIC50) was at least 7.00.

Source of the values: patent US20230192720A1, “MACROCYCLIC COMPOUNDS” (ZENO MANAGEMENT, INC., priority 2019, published 2023).
